The values below come from patent US8871288B2, “Aromatic neomenthylamides as flavoring substances” (Symrise AG, priority 2007, dated 2014).

For experiment [1] the following is noted: cited from earlier work; for effect in the oral cavity: known naturally occurring alkamides; for sensorial impression: prior art (US 2004/0202760, US 2004/0202619, US 2006/057268, 2006/068071).
A short description of experiment [2]: Panel tasting, green tea drink (Application Example 11). It is filed as in vivo. To be noted: 0.004% by weight of a 1% solution in propylene glycol in green tea drink, sterilized at 118° C. On the procedure:
The green tea concentrate is mixed with a 1% solution of a 1:1 mixture of the compounds (3)+(4) in propylene glycol. Afterwards, demineralized water is poured in and the mixture is again thoroughly stirred. Then the product is filtered, packed ready for consumption and sterilized at 118° C.

The nature of experiment [3]: Flavor comparison in American beef bouillon base with MSG, panel of trained testers (FIG. 1). Particulars: 5 ppm of 1:1 mixture in American beef bouillon base vs base with 0.05% by weight MSG. It is filed as in vivo. The protocol:
This is also shown by the spider diagram which is appended as FIG. 1 and in which an American beef bouillon as a base is compared (i) to a base of the type to which 5 ppm of a 1:1 mixture of benzo[1,3]dioxol-5-carboxylic acid ((1S,2S,5R)-2-isopropyl-5-methylcyclohexyl)amide (3) and benzo[1,3]dioxol-5-carboxylic acid ((1R,2R,5S)-2-isopropyl-5-methylcyclohexyl)amide (4) are added and (ii) to a base of the type to which 0.05% by weight of MSG (sodium glutamate) is added.
The flavor of a 0.5% American beef extract as a base (solid, light line) was compared, based on a tasting performed by a panel of trained testers, with the flavor firstly of a base of this type to which 5 ppm of a mixture of benzo[1,3]dioxol-5-carboxylic acid ((1S,2S,5R)-2-isopropyl-5-methylcyclohexyl)amide (3) and benzo[1,3]dioxol-5-carboxylic acid ((1R,2R,5S)-2-isopropyl-5-methylcyclohexyl)amide (4) were added (solid, dark line), and secondly of a base of this type to which 0.05% by weight of MSG was added (dotted line).
The testers judged the […] of the specified types of flavor in each case by awarding scores on a scale of from 0 (no corresponding flavor) to 6 (very strong corresponding flavor). The average values of the respective scores are shown.

A short description of experiment [4]: Flavor impression of the individual compounds. It is filed as in vivo. To be noted: tasting of the compound as such.

As for `CCCCC/C=C/C=C/C(=O)NCC(C)C` [pellitorine], the “effect in the oral cavity” value in experiment [1] is “a salivatory and tingling effect, a long-lasting and numbing effect in the oral cavity”. Regarding `CC(C)=CCCC(C)=CCNC(=O)C1CC1` [N-3,7-dimethyl-2,6-octadienyl cyclopropylcarboxamide], in experiment [1], the sensorial impression result was “salt and umami intensifier”. For “Benzo[1,3]dioxole-5-carboxylic acid((1S,2S,5R)-2-isopropyl-5-methylcyclohexyl)amide (3)/benzo[1,3]dioxole-5-carboxylic acid((1R,2R,5S)-2-isopropyl-5-methylcyclohexyl)amide (4) [1:1 mixture of the compounds (3)+(4)]”, the “taste compared to the non-aromatized green tea base” value in experiment [2] was “clearly preferable”. Besides, the “flavor compared to other umami-tasting compounds and to sodium glutamate (MSG)” value in experiment [3] is recorded as “clear umami flavor which is very similar to sodium glutamate (MSG)”.

For `CC(C)[C@@H]1CC[C@@H](C)C[C@@H]1NC(=O)Cc1ccc2c(c1)OCO2` [(5), 2-benzo[1,3]dioxol-5-yl-N-((1S,2S,5R)-2-isopropyl-5-methylcyclohexyl)acetamide], the flavor impression result in experiment [4] is reported as “in addition to an umami flavor, a slightly salty note”.

With `C/C=C/C=C\CC/C=C/C(=O)NCC(C)C` [spilanthol], in experiment [1], the “effect in the oral cavity” value is “a salivatory and tingling effect, a long-lasting and numbing effect in the oral cavity”. Turning to `COC(=O)c1ccc(C(=O)N[C@H]2C[C@H](C)CC[C@H]2C(C)C)cc1` [(1), N-((1S,2S,5R)-2-isopropyl-5-methylcyclohexyl)terephthalic acid methyl ester], the flavor impression result in experiment [4] is “umami flavor without very bitter accompanying notes”.

On to `CC/C=C\CC/C=C/C(=O)NCC` [N-ethyl-E2,Z6-nonadienamide], for which, in experiment [1], the sensorial impression entry is on record as “MSG-like effect”. On to `COC(=O)c1ccc(C(=O)N[C@@H]2C[C@@H](C)CC[C@@H]2C(C)C)cc1` [(2), N-((1R,2R,5S)-2-isopropyl-5-methylcyclohexyl)terephthalic acid methyl ester], for which the flavor impression result in experiment [4] is given as “umami flavor without very bitter accompanying notes”.

As to `CC/C=C\CC/C=C/C(=O)NC1CC1` [N-cyclopropyl-E2,Z6-nonadienamide], the sensorial impression entry in experiment [1] is “MSG-like effect”. Take `CC(C)[C@@H]1CC[C@@H](C)C[C@@H]1NC(=O)c1ccc2c(c1)OCO2` [(3), benzo[1,3]dioxol-5-carboxylic acid ((1S,2S,5R)-2-isopropyl-5-methylcyclohexyl)amide]: in experiment [4], the flavor impression entry is given as “very strong umami flavor”. Same read-out and setting: under `CC(C)[C@H]1CC[C@H](C)C[C@H]1NC(=O)c1ccc2c(c1)OCO2` [(4), benzo[1,3]dioxol-5-carboxylic acid ((1R,2R,5S)-2-isopropyl-5-methylcyclohexyl)amide] stands “very strong umami flavor”. For `CCCCC/C=C\CC/C=C/C(=O)NCC` [N-ethyl-E2,Z6-dodecadienamide], the sensorial impression result in experiment [1] is recorded as “MSG-like effect”. Turning to `CC(C)[C@H]1CC[C@H](C)C[C@H]1NC(=O)Cc1ccc2c(c1)OCO2` [(6), 2-benzo[1,3]dioxol-5-yl-N-((1R,2R,5S)-2-isopropyl-5-methylcyclohexyl)acetamide], the flavor impression result in experiment [4] is listed as “in addition to an umami flavor, a slightly salty note”.
